Source: paper PMC11945486, “TAS1R2/TAS1R3 Single-Nucleotide Polymorphisms Affect Sweet Taste Receptor Activation by Sweeteners: The SWEET Project” (Nutrients, 2025)
Read-outs that look alike come from different tables or passages of the source. No end group written: not given here.

T1: human TAS1R2-WT/TAS1R3-F514L (Homo sapiens, UniProt Q7RTX0+Q8TE23, F514L)
T1 construct: expressed in transfected cells; host or cells: HEK293T stably expressing Gα16gust44
T1 sequence (Q8TE23 20-839): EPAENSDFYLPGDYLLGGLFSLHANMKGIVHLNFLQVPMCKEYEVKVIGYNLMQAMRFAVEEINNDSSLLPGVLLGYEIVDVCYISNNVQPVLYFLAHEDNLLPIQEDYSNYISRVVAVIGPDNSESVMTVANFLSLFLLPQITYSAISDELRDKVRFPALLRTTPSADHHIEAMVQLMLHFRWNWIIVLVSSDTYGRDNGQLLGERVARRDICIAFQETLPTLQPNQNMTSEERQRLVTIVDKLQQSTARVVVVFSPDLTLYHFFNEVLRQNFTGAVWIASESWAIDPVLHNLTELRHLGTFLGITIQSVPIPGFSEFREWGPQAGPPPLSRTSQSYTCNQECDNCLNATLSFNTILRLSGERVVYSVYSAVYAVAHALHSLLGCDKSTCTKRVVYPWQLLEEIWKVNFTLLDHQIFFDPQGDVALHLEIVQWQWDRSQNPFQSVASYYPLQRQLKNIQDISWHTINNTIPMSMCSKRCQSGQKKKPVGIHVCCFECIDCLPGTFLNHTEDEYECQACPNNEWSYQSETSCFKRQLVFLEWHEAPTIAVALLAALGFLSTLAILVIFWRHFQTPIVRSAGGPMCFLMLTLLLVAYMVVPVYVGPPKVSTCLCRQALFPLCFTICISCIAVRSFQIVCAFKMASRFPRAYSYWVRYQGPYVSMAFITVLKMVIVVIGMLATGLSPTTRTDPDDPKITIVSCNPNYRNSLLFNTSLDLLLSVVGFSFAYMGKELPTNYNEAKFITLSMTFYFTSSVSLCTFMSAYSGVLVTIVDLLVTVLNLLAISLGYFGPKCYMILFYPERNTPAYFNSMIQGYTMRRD
T1 sequence (Q7RTX0 21-852 F514L): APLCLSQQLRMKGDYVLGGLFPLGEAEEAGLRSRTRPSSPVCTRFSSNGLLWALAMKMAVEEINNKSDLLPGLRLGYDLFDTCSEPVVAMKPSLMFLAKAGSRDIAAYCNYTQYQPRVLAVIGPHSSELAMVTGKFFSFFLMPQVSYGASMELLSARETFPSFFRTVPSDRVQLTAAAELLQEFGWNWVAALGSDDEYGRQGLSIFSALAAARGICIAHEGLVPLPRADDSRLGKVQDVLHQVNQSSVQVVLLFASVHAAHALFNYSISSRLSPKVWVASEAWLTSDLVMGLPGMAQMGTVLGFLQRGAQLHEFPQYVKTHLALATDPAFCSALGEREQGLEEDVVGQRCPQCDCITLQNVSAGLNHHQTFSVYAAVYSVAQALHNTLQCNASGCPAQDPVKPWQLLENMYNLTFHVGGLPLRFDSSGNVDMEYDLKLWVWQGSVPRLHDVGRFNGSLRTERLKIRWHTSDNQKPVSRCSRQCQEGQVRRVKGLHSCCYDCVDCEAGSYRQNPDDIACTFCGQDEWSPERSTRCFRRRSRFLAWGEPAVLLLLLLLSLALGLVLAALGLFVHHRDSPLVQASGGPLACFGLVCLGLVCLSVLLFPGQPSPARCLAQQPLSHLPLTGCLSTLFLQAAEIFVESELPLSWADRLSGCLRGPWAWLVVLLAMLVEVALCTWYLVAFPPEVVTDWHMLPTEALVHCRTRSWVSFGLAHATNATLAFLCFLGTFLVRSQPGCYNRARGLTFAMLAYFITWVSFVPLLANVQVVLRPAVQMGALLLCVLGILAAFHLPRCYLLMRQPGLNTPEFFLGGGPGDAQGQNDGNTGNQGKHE


Molecular target: T1, human TAS1R2-WT/TAS1R3-F514L
Test: Calcium mobilisation assay, TAS1R2-WT with TAS1R3 variant F514L
Assay type: cell-based
Conditions: for Max ΔF/F0: maximal signal amplitude
Excerpt: The coding sequences for TAS1R2 and TAS1R3 were commercially synthesised, and the human codon was optimised for expression in human cells. The coding sequences of human TAS1R2 and TAS1R3 were subcloned and inserted into the mammalian expression vectors pcDNA6/myc-HisA and pcDNA4/myc-HisA (Invitrogen; Thermo Fisher Scientific; Illkirch, France) between the EcoRI and NotI restriction sites, generating the plasmids pcDNA6-TAS1R2 and pcDNA4-TAS1R3, respectively. To increase protein expression in mammalian cells, an upstream start codon was used, which was a sequence called MAX, corresponding to the QBI SP163 element also described in pcDNA4-HisMax (Invitrogen; Thermo Fisher Scientific; Illkirch, France). To measure the expression level of the receptor by immunohistochemistry, we used the FLAG sequence ([…]) in the C-terminal position, which encodes the FLAG tag epitope. SNP variants of TAS1R2 and TAS1R3 were constructed based on […], respectively, using site-directed mutagenesis (Genewiz; Leipzig, Germany).
The HEK293T cells were kindly provided by Jay P. Slack (Givaudan Flavors Corporation; Cincinnati, OH, USA). HEK293T cells stably transfected with Gα16gust44 [43, 67] were seeded in poly-D-lysine-coated clear-bottom black 96-well plates (0.35 × 10^5 cells/well) in high-glucose DMEM supplemented with 2 mM GlutaMAX, 10% dialysed foetal bovine serum with penicillin/streptomycin and G418 (400 μg/mL) at 37 °C and 6.3% CO2 in a humidified atmosphere as previously reported. […] As a negative control, HEK293T cells were mock-transfected with the empty expression vector. After a further 24 h of incubation, the HEK293T cells were washed with C1 buffer (130 mM NaCl, 5 mM KCl, 10 mM HEPES pH 7.4 and 2 mM CaCl2). The 96-well plates containing the cells were then stimulated with sweet-tasting compounds. […] Different concentration ranges were tested depending on the sweet compound injected. The Ca^2+ changes were expressed as fractional changes in fluorescent light intensity: ΔF/F = (F − F0)/F0, where F was the fluorescent light intensity at each point, and F0 was the value of emitted fluorescent light prior to stimulus application. To calculate dose–response relationships, the changes in fluorescence upon stimulus application were averaged, mock-subtracted and baseline-corrected. The dose–response data obtained were adjusted using a 4-parameter logistic equation. The half-maximal effective concentrations (EC50 values) and maximal signal amplitudes were calculated using SigmaPlot software (version 15.0) (Systat Software; San Jose, CA, USA).
For in vitro calcium mobilisation assay performed on hTAS1R2-SNPs, hTAS1R3-SNPs and mTAS1R3-I60T, 6 to 7 concentrations were tested for each sweet compound, plus buffer alone. All concentration–receptor combinations were measured in duplicate, and each experiment was repeated at least 4 times (8 wells/concentration). Results were expressed for each concentration as ΔF/F mean ± SEM and represented as dose–response curves.

| Molecule | R1 = Variant EC50/WT EC50 | Max ΔF/F0 | EC50 (read-out: EC50) [µM] | EC50 (brazzein) [µg/mL] |
| --- | --- | --- | --- | --- |
| CC1=CC(=O)NS(=O)(=O)O1 [Acesulfame K, acesulfame K] | 0.7 | 0.14 ± 0.01 | 442 ± 24 | – |
| O=S(=O)(O)NC1CCCCC1 [Cyclamate, cyclamate] | – | – | 1250 ± 30 | – |
| C[C@H](CC[C@@H](O[C@@H]1O[C@H](CO[C@@H]2O[C@H](CO)[C@@H](O)[C@H](O)[C@H]2O)[C@@H](O)[C@H](O)[C@H]1O[C@@H]1O[C@H](CO)[C@@H](O)[C@H](O)[C@H]1O)C(C)(C)O)[C@H]1CC[C@@]2(C)[C@@H]3CC=C4[C@@H](CC[C@H](O[C@@H]5O[C@H](CO[C@@H]6O[C@H](CO)[C@@H](O)[C@H](O)[C@H]6O)[C@@H](O)[C@H](O)[C@H]5O)C4(C)C)[C@]3(C)[C@H](O)C[C@]12C [Mogroside V, mogroside V] | 1.4 | 0.79 ± 0.02 | 44.7 ± 2.8 | – |
| COc1ccc(CCC(=O)c2c(O)cc(O[C@@H]3O[C@H](CO)[C@@H](O)[C@H](O)[C@H]3O[C@@H]3O[C@@H](C)[C@H](O)[C@@H](O)[C@H]3O)cc2O)cc1O [NHDC, neohesperidin dihydrochalcone] | 0.8 | 1.21 ± 0.08 | 37.9 ± 8.4 | – |
| COC(=O)[C@H](Cc1ccccc1)NC(=O)[C@H](CC(=O)O)NCCC(C)(C)C [Neotame] | 1.0 | 0.45 ± 0.01 | 1.23 ± 0.06 | – |
| C=C(C)[C@@H]1CC=C(/C=N/O)CC1 [Perillartine, perillartine] | 1.0 | 1.40 ± 0.24 | 13.9 ± 7.3 | – |
| C=C1C[C@@]23CC[C@H]4[C@@](C)(CCC[C@@]4(C)C(=O)O[C@@H]4O[C@H](CO)[C@@H](O)[C@H](O[C@@H]5O[C@H](CO)[C@@H](O)[C@H](O)[C@H]5O)[C@H]4O[C@@H]4O[C@H](CO)[C@@H](O)[C@H](O)[C@H]4O)[C@@H]2CC[C@]1(O[C@@H]1O[C@H](CO)[C@@H](O)[C@H](O[C@@H]2O[C@H](CO)[C@@H](O)[C@H](O)[C@H]2O)[C@H]1O[C@@H]1O[C@H](CO)[C@@H](O)[C@H](O)[C@H]1O)C3 [Rebaudioside M, rebaudioside M] | 0.8 | 0.64 ± 0.02 | 32.1 ± 2.5 | – |

The next lines start with the values.

| R1 = Variant EC50/WT EC50 | Max ΔF/F0 | EC50 (read-out: EC50) [µM] | EC50 (brazzein) [µg/mL] | Molecule |
| --- | --- | --- | --- | --- |
| 1.3 | 0.49 ± 0.01 | 141 ± 3 | – | OC[C@H]1O[C@H](O[C@]2(CCl)O[C@H](CCl)[C@@H](O)[C@@H]2O)[C@H](O)[C@@H](O)[C@H]1Cl [Sucralose] |
| 0.4 | 1.07 ± 0.04 | – | 44.4 ± 6.4 | brazzein (QDKCKKVYENYPVSKCQLANQCNYDCKLDKHARSGECFYDEKRNLQCICDYCEY; ends and bridges not checked; cysteine pairing not given here; UniProt P56552 1-54, looked up) [sweet-tasting protein obtained by recombinant production using the yeast Pichia pastoris] |
| 0.9 | 0.72 ± 0.04 | – | – | thaumatin |
| – | – | 9.8 ± 1 | – | thaumatin (protein, Eight disulfides, sweet-tasting plant protein, E957) ATFEIVNRCSYTVWAAASKGDAALDAGGRQLNSGESWTINVEPGTKGGKIWARTDCYFDDSGSGICKTGDCGGLLRCKRFGRPPTTLAEFSLNQYGKDYIDISNIKGFNVPMDFSPTTRGCRGVRCAADIVGQCPAKLKAPGGGCNDACTVFQTSEYCCTTGKCGPTEYSRFFKRLCPDAFSYVLDKPTTVTCPGSSNYRVTFCPTA |
